Measured values reported in patent US20140357688A1, “METHOD FOR INHIBITING EZH2 EXPRESSION IN BREAST CANCER CELLS” (Yung Shin Pharm. Ind. Co., Ltd., priority 2013, published 2014).

Assays:
Format in all cases: cell-based, human
MDA-MB-231 = assay: MTT cell viability assay; settings: triple negative breast cancer cell line MDA-MB-231
Description: (§1) Human breast cancer cells, MDA-MB-468, MDA-MB-157, MDA-MB-231, MDA-MB-453, and Hs578T, and immortalized mammary epithelial cell lines, 184A1 and MCF-10A, were obtained from American Type Culture Collection (Manassas, Va., USA). MDA-MB-468, MDA-MB-157, MDA-MB-231, and MDA-MB-453 were cultured in DMEM/F12 medium supplemented with 10% FBS, 100 U/ml penicillin, and 100 μg/ml streptomycin. Hs578T was cultured in RPMI 1640 medium containing 10% FBS, 2 mM L-glutamine, 100 U/ml penicillin, and 100 μg/ml streptomycin. 184A1 and MCF-10A were cultured in DMEM/F12 medium supplemented with 5% horse serum, 0.5 μg/ml hydrocortisone, 10 μg/ml insulin, 20 ng/ml epidermal growth factor, 0.1 μg/ml cholera enterotoxin, 2 mM L-glutamine, 100 U/ml penicillin, and 100 μg/ml streptomycin. All cells were maintained in a humidified incubator containing 5% CO2. For hypoxia treatment, cells were incubated in a chamber flushed with 1% 02, 5% CO2, and 94% N2 at 37° C.
(§2) Cell viability was measured by 3-(4,5-Dimethyl-2-thiazolyl)2,5-diphenyl-2H-tetrazolium bromide (MTT) assay.

MDA-MB-453 = assay: MTT cell viability assay
Description: as §1, §2

EZH2 = EZH2 ubiquitination assay; settings: 3 μM YC-1
Description: (A) Cells were pretreated with cyclohexamide (30 μM) for 1 h and followed by induction with vehicle (DMSO) or YC-1 (3 μM) for indicated time. Cells were harvested for detection of protein expression. (B)(C) Cells were incubated with 3 μM YC-1 for 6 h in the presence of vehicle, 3 μM MG-132 or 30 μM NH4Cl. Cells were harvested for detection of protein expression (B) or cell viability assay (C). The levels of protein expression were quantitated and shown under blots. (D) After treatment of 3 μM YC-1 for indicated time, cells were harvested and lysed for immunoprecipitation and western blot analysis described in Materials and Methods.
Cells were lysed with MLB buffer (25 mM HEPES, pH 7.5, 150 mM NaCl, 1% Igepal CA-630, 10 mM MgCl2, 1 mM EDTA, 2% glycerol, 1 mM Na3VO4, 1 mM NaF, 1 mM PMSF, 10 μg/ml of leupeptin, aprotinin, and pepstatin A). After sonication, cell lysates were centrifugated at 12,000×g for 10 min at 4° C. Supernatants were incubated with anti-EZH2 antibody (BD Biosciences) and protein A Sepharose beads (GE Health Care) overnight at 4° C. After washing with MLB buffer, precipitated proteins were boiled in 1× Laemmli sample buffer and then separated with SDS-PAGE. The ubiquitination levels of EZH2 were recognized by using anti-Ubiquitn monoclonal antibody.

ERK = assay: Western blot of ERK phosphorylation in MDA-MB-468 cells; settings: 3 μM YC-1; beginning at 2 h, maximal at 6 h
Description: (A) Cells were pretreated with KT5720 (3 μM), KT5823 (3 μM), NS2028 (30 μM), or ODQ (30 μM) and then stimulated with YC-1 (3 μM) for 6 h. Cells were collected for measurement of protein expression (left) or cell viability (middle). After 3 days of PKA knockdown, cells were induced with 3 μM YC-1 for 4 h. Cells were harvested and analyzed using western blotting (right). The levels of protein expression were quantitated and shown under blots. […] Cells were collected and analyzed protein expression (left) and cells viability (middle). p44/42 MAPK knockdown cells were treated with 3 μM YC-1 for 4 h and then detected protein expression (left). (C) Cells were treated with 3 μM YC-1 for indicated time. Cells were harvested for detection of protein phosphorylated activation. […] Six hours later, cells were harvested for EZH2 ubiquitination assay. (E) Cells were induced by 3 μM YC-1 for 6 h in the presence of PD98059 or KT5720. Cells were collected for the determination of ERK phosphorylation. Cells were lysed in PBS containing proteinase inhibitor and phosphatase inhibitors and sonication. Protein concentration was measured using the Bio-Rad protein assay kit (Bio-Rad Laboratories, Hercules, Calif., USA). […] The band intensities were analyzed and quantified by the Multi Gauge software (Fuji Photo Film).

Src, Raf-1, and MEK = assay: Western blot of Src, Raf-1 and MEK activation; settings: 3 μM YC-1
Description: (A) Cells were pretreated with DMSO (as control), Bay-43-9006 (Bay, 10 μM), farnyesyl thiosalicylic acid (FTS, 10 μM), Src inhibitor I (SrcI, 10 μM), and genistein (Gen, 10 μM), then followed by YC-1 (3 μM) incubation for 6 h. Cells were harvested and lysed for western blot analysis (left, right) and cell viability (middle). The levels of protein expression were quantitated and shown under blots. (B) MDA-MB-468 cells were transfected with shRNA of Raf-1 or Src. After stimulation of 3 μM YC-1 for 4 h, cell protein was subjected to western blot analysis. (C) Cells were incubated with 3 μM YC-1 for indicated time and then lysed for detection of Src, Raf-1, and MEK activation by using specific anti-phosphorylated antibodies. (D) Cells were treated with 3 μM YC-1 for indicated time. Cells were lysed and detected Ras activation by using Raf-RBD conjugated agarose to pull-down Ras-GTP. The total Ras in cell lysate was also detected. […] Cells were lysed and protein expression was determined by western blot analysis. […]
Cells were lysed in PBS containing proteinase inhibitor and phosphatase inhibitors and sonication. Protein concentration was measured using the Bio-Rad protein assay kit (Bio-Rad Laboratories, Hercules, Calif., USA). […] The band intensities were analyzed and quantified by the Multi Gauge software (Fuji Photo Film).

OCc1ccc(-c2nn(Cc3ccccc3)c3ccccc23)o1 [YC-1, 3-(5′-hydroxymethyl-2′-furyl)-1-benzyl indazole]
effect on cell viability (MDA-MB-231): slight inhibitory effect | effect on cell viability (MDA-MB-453): no effect | ubiquitination of EZH2 (EZH2): time-dependently promoted the ubiquitination of EZH2 | phosphorylated activation of ERK (ERK): rapid phosphorylated activation | phosphorylated activation of Src, Raf-1, and MEK (Src, Raf-1, and MEK): time-dependent phosphorylated activation
